Experimental data published in patent US20140005119A1, “COMPOSITIONS AND METHODS FOR INHIBITING THE ACTIVITY OF P110a MUTANT PROTEINS” (Case Western Reserve University, priority 2012, published 2014).

Legend:
[1] = molecular target: T1, cellular p110α-p85 interaction (Homo sapiens, UniProt P42336, E545K); assay: Co-IP from treated cells, cellular p110α-p85 interaction; assay type: cell-based
T1 construct: tag the endogenous WT or mutant p110α with 3×FLAG at their C termini in DLD1 cells; endogenous in cells; host or cells: DLD1 p110α E545K 3×FLAG knock-in cells
Description: (§1) FIG. 4(A-F) illustrate: (A) Schematic diagram of linear and stapled WT and mutant peptides derived from p110α (SEQ ID NOs: 5, 6, 7 and 8). (B) Immunoblots of cell lysates immunoprecipitated with beads conjugated with anti-FLAG antibodies and then blotted with the indicated antibodies. Linear or stapled WT and mutant peptide were added into culture medium of the p110α E545K 3×FLAG KI cells for 16 hr. (C) Immunoblots of cell lysates immunoprecipitated with anti-p110α antibodies and then blotted with the indicated antibodies. Vaco481 CRC cells were treated with the stapled mutant peptides at the indicated concentration. (D) Immunoblots of cell lysates blotted with the indicated antibodies. The indicated cell lines were treated with the stapled mutant peptide. (E) Immunoblots of cell lysates blotted with the indicated antibodies. […]
(§2) For Co-immunoprecipitation (Co-IP), cells were harvested, washed with PBS, and then lysed in IP buffer (50 mMTris [pH 7.4], 150 mMNaCl, 5 mMEDTA [pH 8.0], 0.5% NP40, 1 mM PMSF, complete Protease Inhibitor Cocktail tablet [Roche]; supplemented with phosphatase inhibitors [1 mM Na3VO4, 20 mM NaF, 0.1 mM b-glycerophosphate, 20 mM sodium pyrophosphate] when necessary). […] Lysates were then cleared by centrifugation (14,000 rpm, 10 min) and protein concentration in supernatants was determined with a BCA protein assay kit (Pierce, Rockford, Ill.). […]

[2] = system: p110α; assay: Immunoblot of treated cell lines, p110α protein level; assay type: cell-based, human
Description: as §1, §2

[3] = system: p85 and IRS1; assay: Immunoblot of treated cell lines, p85 and IRS1 levels; assay type: cell-based, human
Description: as §1, §2

[4] = system: AKT phosphorylation; assay: Immunoblot of AKT phosphorylation in cancer cell lines treated with stapled peptides; assay type: cell-based, human; design: AKT phosphorylation / AKT phosphorylation at both T308 and 5473 residues: dose or concentration left out as unconfirmed
Description: FIGS. 3(A-M) illustrate: (A, B) Mapping peptides (P3, SEQ ID NO: 1; P4 SEQ ID NO: 2; P5, SEQ ID NO: 3; P6, SEQ ID NO: 4) derived from mutant p110α that inhibit interaction between IRS1 and p110α E545K. The indicated peptides were added into cell lysates made from the p110α E545K 3×FLAG KI cells. Cell lysates were immunoprecipitated with beads conjugated with anti-FLAG antibodies and then blotted with anti-IRS1 antibodies. (C) Immunoblots of cell lysates made from the p110α E545K 3×FLAG KI cells. Cell lysates were immunoprecipitated with beads conjugated with anti-FLAG antibodies and then blotted with the indicated antibodies. (D) Immunoblots of cell lysate of Myc-tagged IRS1 plasmid, which co-transfected an ABD domain deletion construct of the FLAG-tagged p110α E545K mutant (ΔABD), incubated with the indicated amount of stapled p110α mutant peptides, and then immunoprecipitated with anti-FLAG antibodies and blotted with the indicated antibodies. (J, K) Immunoblot and graph of purified recombinant p110α E545K mutant proteins mixed with the indicated components and quantified using an in vitro lipid kinase assay. (L, M) Immunoblots of the indicated cell lines serum-starved, stimulated with 1 μg/ml insulin for 30 min, and then treated with or without the indicated peptides. Cell lysates were blotted with the indicated antibodies. All error bars show mean±SEM. *p<0.05, **p<0.001, t test.
FIG. 4(A-F) illustrate: (A) Schematic diagram of linear and stapled WT and mutant peptides derived from p110α (SEQ ID NOs: 5, 6, 7 and 8). (B) Immunoblots of cell lysates immunoprecipitated with beads conjugated with anti-FLAG antibodies and then blotted with the indicated antibodies. Linear or stapled WT and mutant peptide were added into culture medium of the p110α E545K 3×FLAG KI cells for 16 hr. (C) Immunoblots of cell lysates immunoprecipitated with anti-p110α antibodies and then blotted with the indicated antibodies. Vaco481 CRC cells were treated with the stapled mutant peptides at the indicated concentration. (D) Immunoblots of cell lysates blotted with the indicated antibodies. The indicated cell lines were treated with the stapled mutant peptide. (E) Immunoblots of cell lysates blotted with the indicated antibodies. The indicated cancer cell lines were treated or untreated with stapled WT or mutant peptide at […] for 2 hr. (F) Immunoblots of cell lysates were blotted with the indicated antibodies. The indicated cancer cell lines were treated with or without […] of stapled mutant peptide for 2 hr.
Colorectal cancer (CRC) cell lines DLD1, HCT116, Vaco481 and genetically engineered CRC cell lines were maintained in McCoy's 5A medium containing 10% fetal bovine serum (FBS). Lung cancer cell line H460 and breast cancer cell line T47D were cultured in RPMI 1640 medium plus 10% of FBS. Breast cancer cell line MDA-MB361 was maintained in Leibovitz's L-15 medium with 20% FBS. Human embryonic kidney HEK293 cells were cultured in DMEM medium containing 10% FBS. Mammalian cells were transfected with Lipofectamine in accordance with the manufacturer's instructions (Invitrogen).
For Co-immunoprecipitation (Co-IP), cells were harvested, washed with PBS, and then lysed in IP buffer (50 mMTris [pH 7.4], 150 mMNaCl, 5 mMEDTA [pH 8.0], 0.5% NP40, 1 mM PMSF, complete Protease Inhibitor Cocktail tablet [Roche]; supplemented with phosphatase inhibitors [1 mM Na3VO4, 20 mM NaF, 0.1 mM b-glycerophosphate, 20 mM sodium pyrophosphate] when necessary). For immunoblotting (IB) of phospho-specific proteins, unless stated otherwise, cells were lysed in urea buffer (100 mM NaH2PO4, 10 mM Tris-HCl, 8 M Urea, 1 mM Na3VO4, 20 mM NaF, 0.1 mM β-glycerophosphate, 20 mM sodium pyrophosphate, supplemented with complete Protease Inhibitor Cocktail tablet [Roche], pH 8.0). Lysates were then cleared by centrifugation (14,000 rpm, 10 min) and protein concentration in supernatants was determined with a BCA protein assay kit (Pierce, Rockford, Ill.). […]

T1 sequence (P42336 whole entry E545K): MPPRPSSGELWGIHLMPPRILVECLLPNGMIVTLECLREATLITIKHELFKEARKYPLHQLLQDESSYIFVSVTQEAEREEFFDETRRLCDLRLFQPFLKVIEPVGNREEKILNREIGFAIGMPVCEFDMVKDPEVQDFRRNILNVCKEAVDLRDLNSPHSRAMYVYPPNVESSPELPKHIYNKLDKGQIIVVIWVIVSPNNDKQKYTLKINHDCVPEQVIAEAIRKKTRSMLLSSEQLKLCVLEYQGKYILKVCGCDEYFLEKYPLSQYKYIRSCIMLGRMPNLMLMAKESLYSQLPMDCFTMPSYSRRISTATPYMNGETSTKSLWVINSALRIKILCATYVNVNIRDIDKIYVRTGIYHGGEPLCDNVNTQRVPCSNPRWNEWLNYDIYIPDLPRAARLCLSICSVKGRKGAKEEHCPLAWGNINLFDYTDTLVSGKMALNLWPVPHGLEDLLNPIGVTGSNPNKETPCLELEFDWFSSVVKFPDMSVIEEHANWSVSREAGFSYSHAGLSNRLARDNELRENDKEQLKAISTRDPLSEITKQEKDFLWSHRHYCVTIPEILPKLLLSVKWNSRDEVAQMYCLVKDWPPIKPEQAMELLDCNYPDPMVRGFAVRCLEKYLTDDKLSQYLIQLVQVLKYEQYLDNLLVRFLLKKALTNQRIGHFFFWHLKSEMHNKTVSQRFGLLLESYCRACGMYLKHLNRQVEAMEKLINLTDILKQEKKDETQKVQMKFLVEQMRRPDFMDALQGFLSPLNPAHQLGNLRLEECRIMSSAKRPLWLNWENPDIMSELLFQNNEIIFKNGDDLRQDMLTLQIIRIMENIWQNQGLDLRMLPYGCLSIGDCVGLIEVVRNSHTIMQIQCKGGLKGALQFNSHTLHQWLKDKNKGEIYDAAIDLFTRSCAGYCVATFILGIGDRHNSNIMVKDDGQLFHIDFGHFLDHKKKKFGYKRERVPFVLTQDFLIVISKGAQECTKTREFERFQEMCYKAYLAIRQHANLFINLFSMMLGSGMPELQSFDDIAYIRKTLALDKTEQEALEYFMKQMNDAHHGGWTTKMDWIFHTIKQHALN
T1 sequence (P27986 whole entry partner): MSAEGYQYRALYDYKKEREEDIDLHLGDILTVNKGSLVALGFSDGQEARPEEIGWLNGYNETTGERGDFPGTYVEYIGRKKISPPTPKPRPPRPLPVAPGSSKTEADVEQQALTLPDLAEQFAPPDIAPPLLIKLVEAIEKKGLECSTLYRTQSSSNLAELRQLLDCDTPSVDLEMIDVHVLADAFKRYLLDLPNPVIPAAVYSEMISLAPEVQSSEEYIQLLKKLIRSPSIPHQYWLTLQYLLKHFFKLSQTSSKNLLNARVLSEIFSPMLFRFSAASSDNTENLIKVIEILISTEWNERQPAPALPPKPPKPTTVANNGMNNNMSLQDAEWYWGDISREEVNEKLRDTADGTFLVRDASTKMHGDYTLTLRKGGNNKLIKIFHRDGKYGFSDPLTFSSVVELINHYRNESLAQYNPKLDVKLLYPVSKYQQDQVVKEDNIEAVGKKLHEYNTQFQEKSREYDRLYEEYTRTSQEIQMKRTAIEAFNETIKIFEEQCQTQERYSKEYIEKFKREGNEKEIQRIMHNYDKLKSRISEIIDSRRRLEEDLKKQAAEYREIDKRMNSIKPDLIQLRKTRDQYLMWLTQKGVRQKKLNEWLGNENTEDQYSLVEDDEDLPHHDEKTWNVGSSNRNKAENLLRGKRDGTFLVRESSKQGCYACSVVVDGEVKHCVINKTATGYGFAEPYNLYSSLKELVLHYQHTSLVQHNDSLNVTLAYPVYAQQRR

cellular p110α-p85 interaction [1]: did not interfere
Substance: H2N-SEITKQEK-D^549-FLW-S^553-HRHYC-COOH [stapled mutant peptide]
protein levels of p110α [2]: slightly reduce | levels of p85 and IRS1 [3]: did not affect | AKT phosphorylation at both T308 and 5473 residues ([4]; DLD1 cells harboring p110α E545K): reduced | AKT phosphorylation at both T308 and 5473 residues ([4]; H460 cells harboring p110α E545K): reduced | AKT phosphorylation ([4]; HCT116 cells harboring p110α H1047R): no effect | AKT phosphorylation at both T308 and 5473 residues ([4]; MDA-MB361 cells harboring p110α E545K): reduced | AKT phosphorylation ([4]; RKO cells harboring p110α H1047R): no effect | AKT phosphorylation ([4]; T47D cells harboring p110α H1047R): no effect | AKT phosphorylation at both T308 and 5473 residues ([4]; Vaco481 cell line harboring p110α Q546P): reduced | AKT phosphorylation ([4]; WT-only DLD1 cells): did not affect | AKT phosphorylation ([4]; mutant-only DLD1 cells): reduced | AKT phosphorylation when cell lines were stimulated by insulin ([4]; serum-starved, 1 μg/ml insulin for 30 min): no effect | AKT phosphorylation in cancer cells ([4]; summary statement on FIG. 4): reduced
